What was measured:
[1] = system: HT1080 cells; assay: Cellular assay for IDH1m inhibitors: inhibition of 2-HG production (LC-MS, 48 hours) in HT1080 cells; assay type: cell-based; conditions: Homo sapiens, HT-1080; inhibition of 2-HG production, HT1080 cells; read-out: HT1080 IC50
How it was run: (§1)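 Cells were seeded at 5000/well in DMEM with 10% FBS, incubated overnight, then treated with compound (0.2% DMSO final) for 48 h at 37° C. Medium 2-HG was quantified by LC-MS. IC50 is the concentration reducing 2-HG by 50% versus DMSO control, and CellTiter-Glo viability was read at 72 h.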

[2] = target: IDH1 R132H (Homo sapiens, UniProt O75874, R132H); assay: Assay for IDH1 R132H inhibitors (NADPH/aKG, resazurin detection); assay type: biochemical; conditions: enzyme assay of Example 12; read-out: IDH1R132H IC50
How it was run: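 Read-out is resorufin fluorescence (Ex544/Em590) 5 min after adding a 30 μM resazurin detection mix. Before that, mutant enzyme (0.2 μg/ml in its mix) ran 50 min at room temperature with compound, 8 uM NADPH and 2 mM aKG (mix levels) in Tris pH 7.5 with NaCl, MgCl2, BSA.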

[3] = system: U87MG cells; assay: Cellular assay for IDH1m inhibitors: inhibition of 2-HG production (LC-MS, 48 hours) in U87MG cells; assay type: cell-based; conditions: Homo sapiens, U-87 MG, inhibition of 2-HG production, U87R132H cells; read-out: U87R132H IC50
How it was run: as §1

Sequence of IDH1 R132H (O75874 whole entry R132H): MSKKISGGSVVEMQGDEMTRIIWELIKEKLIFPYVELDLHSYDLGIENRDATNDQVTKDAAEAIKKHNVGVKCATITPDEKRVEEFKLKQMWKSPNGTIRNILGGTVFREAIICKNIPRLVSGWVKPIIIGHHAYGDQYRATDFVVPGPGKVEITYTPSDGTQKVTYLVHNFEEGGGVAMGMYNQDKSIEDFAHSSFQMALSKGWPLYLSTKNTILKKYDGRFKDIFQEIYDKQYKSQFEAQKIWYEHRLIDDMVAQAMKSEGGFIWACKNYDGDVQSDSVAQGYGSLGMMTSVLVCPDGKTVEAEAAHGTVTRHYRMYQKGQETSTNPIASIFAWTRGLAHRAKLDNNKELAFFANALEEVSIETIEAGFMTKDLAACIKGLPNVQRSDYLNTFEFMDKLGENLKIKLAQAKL

Row | SMILES | IC50 [1] [nM] | IC50 [2] [nM] | IC50 [3] [nM]
1 | COC[C@@H]1C[C@@H]1C(=O)N1CCN(c2nc(C3CC3)c(-c3cccc4cnccc34)cc2C#N)C[C@H]1C1CC1 [Compound 480, 6-cyclopropyl-2-((R)-3-cyclopropyl-4-((1S,2R)-2-(methoxymethyl)cyclopropanecarbonyl)piperazin-1-yl)-5-(isoquinolin-5-yl)nicotinonitrile] | < 500 | < 500 | < 500
2 | C=Cc1ccc2ccc(-c3cc(C#N)c(N4CCN(C(=O)C5CC5)[C@H](C5CC5)C4)nc3C3CC3)cc2n1 [Compound 709, (R)-2-(4-(cyclopropanecarbonyl)-3-cyclopropylpiperazin-1-yl)-6-cyclopropyl-5-(2-vinylquinolin-7-yl) nicotinonitrile] | < 500 | < 500 | < 500
3 | C=Cc1cc(-c2cc(C#N)c(N3CCN(C(=O)COC)[C@H](C4CC4)C3)nc2C2CC2)ccn1 [Compound 590, (R)-2-cyclopropyl-6-(3-cyclopropyl-4-(2-methoxyacetyl)piperazin-1-yl)-2′-vinyl-3,4′-bipyridine-5-carbonitrile] | < 500 | < 500 | < 500
4 | C=Cc1cc(Nc2cc(C#N)c(N3CCN(C(=O)COC)[C@H](C4CC4)C3)nc2C2CC2)ccn1 [Compound 711, (R)-6-cyclopropyl-2-(3-cyclopropyl-4-(2-methoxyacetyl)piperazin-1-yl)-5-((2-vinylpyridin-4-yl)amino)nicotinonitrile] | < 500 | < 500 | < 500
5 | C=Cc1cc(Nc2cc(C#N)c(N3CCN(C(=O)C[C@H]4CCO4)[C@H](C4CC4)C3)nc2C2CC2)ccn1 [Compound 751, 6-cyclopropyl-2-((R)-3-cyclopropyl-4-(2-((R)-oxetan-2-yl)acetyl)piperazin-1-yl)-5-(2-vinylpyridin-4-ylamino)nicotinonitrile] | < 500 | < 500 | < 500
6 | C=Cc1cc(-c2c(C3CC3)nc(N3CCN(C(=O)CCOC)[C@H](C4CC4)C3)c(C#N)c2C)c2ccncc2n1 [Compound 746, 6-cyclopropyl-2-((R)-3-cyclopropyl-4-(3-methoxypropanoyl)piperazin-1-yl)-4-methyl-5-(2-vinyl-1,7-naphthyridin-4-yl)nicotinonitrile] | < 500 | < 500 | < 500
7 | C=Cc1cc(-c2cc(C#N)c(N3CCN(C(=O)CCCOP(=O)(OC(C)(C)C)OC(C)(C)C)[C@H](C4CC4)C3)nc2C2CC2)ccn1 [Compound 804, (R)-di-tert-butyl 4-(4-(5-cyano-2-cyclopropyl-2′-vinyl-3,4′-bipyridin-6-yl)-2-cyclopropylpiperazin-1-yl)-4-oxobutyl phosphate] | < 500 | < 500 | 500 to 1000
8 | N#Cc1cc(-c2cccc3ncoc23)c(C2CC2)nc1N1CCN(C(=O)C2CC2)[C@H](C2CC2)C1 [Compound 483, (R)-5-(benzo[d]oxazol-7-yl)-2-(4-(cyclopropanecarbonyl)-3-cyclopropylpiperazin-1-yl)-6-cyclopropylnicotinonitrile] | 1000 to 10000 | < 500 | 500 to 1000
9 | C=Cc1cc(Oc2c(C3CC3)nc(N3CCN(C(=O)CCO)[C@H](C4CC4)C3)c(C#N)c2C)ccn1 [Compound 777, (R)-6-cyclopropyl-2-(3-cyclopropyl-4-(3-hydroxypropanoyl)piperazin-1-yl)-4-methyl-5-((2-vinylpyridin-4-yl)oxy)nicotinonitrile] | < 500 | < 500 | < 500
10 | C=Cc1ccc2ccc(-c3cc(C#N)c(N4CCN(C(=O)CCO)[C@H](C5CC5)C4)nc3C3CC3)cc2n1 [Compound 720, (R)-6-cyclopropyl-2-(3-cyclopropyl-4-(3-hydroxypropanoyl)piperazin-1-yl)-5-(2-vinylquinolin-7-yl) nicotinonitrile] | < 500 | < 500 | < 500
11 | C=Cc1cc(-c2c(C3CC3)nc(N3CCN(C(=O)CCOC)[C@H](C4CC4)C3)c(C#N)c2C)cnn1 [Compound 749, (R)-6-cyclopropyl-2-(3-cyclopropyl-4-(3-methoxypropanoyl)piperazin-1-yl)-4-methyl-5-(6-vinylpyridazin-4-yl)nicotinonitrile] | < 500 | < 500 | < 500
12 | C=CS(=O)(=O)Nc1cccc(-c2cc(C#N)c(N3CCN(C(=O)C4CC4)[C@H](C4CC4)C3)nc2C2CC2)c1 [Compound 451] | 1000 to 10000 | < 500 | 1000 to 10000
13 | C=Cc1cnnc(-c2cc(C#N)c(N3CCN(C(=O)C[C@H]4CCO4)[C@H](C4CC4)C3)nc2C2CC2)c1 [Compound 766, 6-cyclopropyl-2-((R)-3-cyclopropyl-4-(2-((R)-oxetan-2-yl)acetyl)piperazin-1-yl)-5-(5-vinylpyridazin-3-yl)nicotinonitrile] | < 500 | < 500 | < 500

Second part, the molecule after the results:

Row | IC50 [1] [nM] | IC50 [2] [nM] | IC50 [3] [nM] | SMILES
14 | 1000 to 10000 | < 500 | 1000 to 10000 | CCC(Oc1cc(C#N)c(N2CCN(C(=O)CCOC)[C@H](C)C2)nc1C1CC1)c1ccccc1 (stereo partly drawn) [Compound 308, 6-cyclopropyl-2-((R)-4-(3-methoxypropanoyl)-3-methylpiperazin-1-yl)-5-(1-phenylpropoxy)nicotinonitrile]
15 | 1000 to 10000 | 500 to 1000 | 1000 to 10000 | COCCC(=O)N1CCN(c2nc(C3CC3)c(-c3cccc(NC(=O)C4(C#N)CC4)c3)cc2C#N)C[C@H]1C [Compound 425, (R)-1-cyano-N-(3-(5-cyano-2-cyclopropyl-6-(4-(3-methoxypropanoyl)-3-methylpiperazin-1-yl)pyridin-3-yl)phenyl)cyclopropanecarboxamide]
16 | < 500 | < 500 | < 500 | C=Cc1cc(-c2cc(C#N)c(N3CCN(C(=O)CCOC)[C@H](C4CC4)C3)nc2C2CC2)c2cccnc2n1 [Compound 645, (R)-6-cyclopropyl-2-(3-cyclopropyl-4-(3-methoxypropanoyl)piperazin-1-yl)-5-(2-vinyl-1,8-naphthyridin-4-yl)nicotinonitrile]
17 | 1000 to 10000 | < 500 | 500 to 1000 | COCCC(=O)N1CCN(c2nc(C3CC3)c(-c3cccc(NS(C)(=O)=O)c3)c(C)c2C#N)C[C@H]1C [Compound 350, (R)—N-(3-{5-cyano-2-cyclopropyl-6-[4-(3-methoxy-propionyl)-3-methyl-piperazin-1-yl]-4-methyl-pyridin-3-yl}-phenyl)-methane sulfonamide]
18 | < 500 | < 500 | 1000 to 10000 | C=CS(=O)(=O)N(C)c1cccc(-c2cc(C#N)c(N3CCN(C(=O)CCOC)[C@H](C)C3)nc2C2CC2)c1 [Compound 446]
19 | < 500 | < 500 | < 500 | C=Cc1ccc2c(-c3cc(C#N)c(N4CCN(C(=O)CCO)[C@H](C)C4)nc3C3CC3)cccc2n1 [Compound 633, (R)-6-cyclopropyl-2-(4-(3-hydroxypropanoyl)-3-methylpiperazin-1-yl)-5-(2-vinylquinolin-5-yl)nicotinonitrile]
20 | 1000 to 10000 | < 500 | 1000 to 10000 | C=CS(=O)(=O)Nc1cccc(-c2cc(C#N)c(N3CCN(C(=O)CCOC)[C@H](C)C3)nc2C2CC2)c1 [Compound 429, (R)—N-(3-(5-cyano-2-cyclopropyl-6-(4-(3-methoxypropanoyl)-3-methylpiperazin-1-yl)pyridin-3-yl)phenyl)ethenesulfonamide]
21 | < 500 | < 500 | < 500 | C=Cc1cc(-c2cc(C#N)c(N3CCN(C(=O)CCOC)[C@H](C(C)C)C3)nc2C2CC2)c2cccnc2n1 [Compound 626, (R)-6-cyclopropyl-2-(3-isopropyl-4-(3-methoxypropanoyl)piperazin-1-yl)-5-(2-vinyl-1,8-naphthyridin-4-yl)nicotinonitrile]
22 | 1000 to 10000 | 500 to 1000 | 1000 to 10000 | COCCC(=O)N1CCN(c2nc(C3CC3)c(-c3ccncc3)c(C)c2C#N)C[C@H]1C [Compound 268, (R)-2-cyclopropyl-6-(4-(3-methoxypropanoyl)-3-methylpiperazin-1-yl)-4-methyl-3,4′-bipyridine-5-carbonitrile]
23 | < 500 | < 500 | < 500 | C=Cc1cnc2c(-c3cc(C#N)c(N4CCN(C(=O)CCO)[C@H](C5CC5)C4)nc3C3CC3)cccc2n1 [Compound 657, (R)-6-cyclopropyl-2-(3-cyclopropyl-4-(3-hydroxypropanoyl)piperazin-1-yl)-5-(2-vinylquinoxalin-5-yl)nicotinonitrile]
24 | 1000 to 10000 | 500 to 1000 | 1000 to 10000 | COCCC(=O)N1CCN(c2nc(C3CC3)c(-c3cccc(NC(=O)[C@@H](C)Cl)c3)cc2C#N)C[C@H]1C [Compound 462, (R)-2-chloro-N-(3-(5-cyano-2-cyclopropyl-6-((R)-4-(3-methoxypropanoyl)-3-methylpiperazin-1-yl)pyridin-3-yl)phenyl)propanamide]
25 | 500 to 1000 | < 500 | < 500 | COCCC(=O)N1CCN(c2nc(C3CC3)c(-c3ccc(NC(C)=O)cc3)c(C)c2C#N)C[C@H]1C [Compound 326, (R)—N-(4-{5-cyano-2-cyclopropyl-6-[4-(3-methoxy-propionyl)-3-methyl-piperazin-1-yl]-4-methyl-pyridin-3-yl}-phenyl)-acetamide]
